Test results: patent publication US9566262B2, “Itch suppression by fucoxanthin” (THE RITSUMEIKAN TRUST, priority 2015, dated 2017)
Entries after “also recorded” stand apart in the source; their conditions may differ.

Columns and labels:
[1] = system: NC/Nga mice; experiment: Toluidine blue staining of skin specimens, number of TB-positive (mast) cells; type: in vivo; settings: 0.1% fucoxanthin in Vaseline, 5 weeks, vs Vaseline-applied mice
Procedure: In the same manner as described in Example 2, Vaseline or fucoxanthin and PiCl were applied to NC/Nga mice. At 5 weeks after starting application of Vaseline or fucoxanthin, the mice were sacrificed, the mice skins were fixed with 4% paraformaldehyde and embedded in paraffin. The skin specimen was stained with toluidine blue (TB) (pH=4.1). Imaging of the stained specimen was performed by Virtual Slide System (Olympus).

[2] = system: filaggrin (Flg); experiment: Immunohistochemical analysis of skin of NC/Nga mice; type: in vivo; settings: topical treatment for 5 weeks, vs Vaseline
Procedure: (§1) Vaseline or fucoxanthin and PiCl were applied to the mice in the same manner as described in Example 2. At 5 weeks after starting application of Vaseline or fucoxanthin, the mice were sacrificed the mice skins were fixed with 4% paraformaldehyde and analyzed according to the method described in Kosaka, T. et al. (supra). The skin section (10 μm thick) was analyzed immunohistochemically using a rabbit anti-filaggrin antibody (Santa Cruz Biotechnology, Inc.) and a rabbit anti-loricrin antibody (Covance). Then, the sample was reacted with an FITC-conjugated anti-rabbit IgG IgG (Santa Cruz Biotechnology, Inc.).

[3] = system: loricrin (Lor); experiment: as above; type: in vivo; settings: topical treatment for 5 weeks, vs Vaseline
Procedure: as §1

[4] = system: bone marrow cells; experiment: Formation of bone marrow-derived mast cells (BMMCs) from bone marrow cells; type: cell-based, mice; settings: 0.1 μM, 1 μM or 10 μM, vs DMSO
Procedure: Bone marrow cells were obtained from 8-week-old female mice and cultured in a medium for conditioning that contained WEHI-3 cells (National Institute of Biomedical Innovation, Health and Nutrition). The culture was performed according to the method described in Yamashita, U. et al. (2005) “Strain difference of murine bone marrow-derived mast cell functions.” J. Leukoc. Biol. 78(3): 605-611. The bone marrow cells were treated with 0.1 μM, 1 μM or 10 μM fucxanthin, or dimethyl sulfoxide (DMSO) as a control. The number of BMMCs containing 10 fields (100 μm×100 μm) per well was counted (FIG. 2C).

[5] = system: NC/Nga mice; experiment: Transdermal water loss (TEWL) in the skin of NC/Nga mice; type: in vivo; settings: topical application plus PiCl, at 5 weeks, vs Vaseline
Procedure: Transdermal water loss (TEWL) in the skin of the mice treated with fucoxanthin was also measured and compared with that in the skin of the mice treated with tacrolimus.

[6] = system: bone marrow-derived mast cells (BMMCs); experiment: Granule formation in BMMCs, tryptase immunostaining; type: cell-based, mice; settings: 10 μM, vs control-treated cells
Procedure: Mature mast cells were prepared in the same manner as described in Example 5. The BMMCs obtained were mounted on a glass slide and heat-fixed. The analysis of the preparation was performed according to the method described in Kosaka, T., Fukui, R., Matsui, M. et al. (2014) “RAGE, Receptor of Advanced Glycation Endoproducts, Negatively Regulates Chondrocytes Differentiation.” PLoS ONE 9(10): e108819. Briefly, the cells were reacted with a mouse anti-mast cell tryptase antibody (AB2378, Abcam, Tokyo, Japan) and then reacted with an FITC-conjugated anti-mouse IgG (Santa Cruz Biotechnology, Inc.) and 1 μg/mL DAPI (4′,6-diamino-2-phenylindole dihydrochloride). The fluorescent image was analyzed by EVOS® FL Cell Imaging System (Life Technologies Corp).
To confirm where the effect of fucoxanthin on granule formation in mast cells is specific rather than common to carotenoids, we compared granule formation between fucoxanthin-treated and astaxanthin-treated BMMCs by immunostaining of tryptase. The immunostaining assay was performed in the same manner as described in Example 6.

[7] = system: Mitf1; experiment: Real time PCR gene expression in bone marrow cells cultured with IL-3; type: cell-based, mice; settings: 10 μM added day 0, cultured 1-4 weeks, vs DMSO
Procedure: (§2) Bone marrow cells obtained from 8-week-old female mice was cultured in a medium for conditioning containing IL-3. On the day the bone marrow cells were obtained (day 0), 10 μM fucoxanthin or dimethyl sulfoxide (DMSO) as a control was added to the culture solution and the cells were cultured for 1, 2, 3 or 4 weeks. Quantitative real time PCR was performed according to the method described in Kosaka et al. (supra). Five different cDNA pool dilutions were used for the experiments. The expression levels of PCR products were normalized to that of a housekeeping gene, GAPDH or β-actin, and the measured values were compared with cycle threshold value (Ct value). The primers used are shown below.
(§3) The housekeeping genes GAPDH and β-actin were used for normalization as internal standards. All measurements were performed 4 times.

[8] = system: GATA-1; experiment: as above; type: cell-based, mice; settings: 10 μM added day 0, cultured 1-4 weeks, vs DMSO
Procedure: as §2, §3

[9] = system: Cebpα; experiment: as above; type: cell-based, mice; settings: vs DMSO
Procedure: as §2, §3

[10] = system: GATA-2; experiment: as above; type: cell-based, mice; settings: 10 μM added day 0, cultured 1-4 weeks, vs DMSO
Procedure: as §2, §3

[11] = system: PU.1; experiment: as above; type: cell-based, mice; settings: 10 μM added day 0, cultured 1-4 weeks, vs DMSO
Procedure: as §2, §3

[12] = system: FcεRIα; experiment: as above; type: cell-based, mice; settings: 10 μM added day 0, cultured 1-4 weeks, vs DMSO
Procedure: as §2, §3

[13] = system: histidine decarboxylase (Hdc); experiment: as above; type: cell-based, mice; settings: 10 μM added day 0, cultured 1-4 weeks, vs DMSO
Procedure: as §2, §3

[14] = system: loricrin; experiment: Semi-quantitative immunoblot of skin proteins of NC/Nga mice; type: in vivo; settings: topical treatment for 5 weeks, vs Vaseline
Procedure: (§4) The immunoblot analysis was performed according to the method described in Kosaka, T. et al. (supra). Mice skin proteins were analyzed by SDS-10% polyacrylamide gel electrophoresis. The blots were incubated with a rabbit anti-filaggrin antibody (Santa Cruz Biotechnology, Inc., Santa Cruz, Calif.), a rabbit anti-actin antibody (Santa Cruz Biotechnology, Inc., Santa Cruz, Calif.) or a rabbit anti-loricrin antibody (Covance, Berkeley, Calif.), and then reacted with a horseradish peroxidase-conjugated anti-rabbit IgG or anti-donkey IgG (Santa Cruz Biotechnology, Inc.).

[15] = system: filaggrin; experiment: as above; type: in vivo; settings: topical treatment for 5 weeks, vs Vaseline
Procedure: as §4

## CC(=O)O[C@H]1CC(C)(C)C(=C=C/C(C)=C/C=C/C(C)=C/C=C/C=C(C)/C=C/C=C(\C)C(=O)C[C@@]23O[C@]2(C)C[C@@H](O)CC3(C)C)[C@](C)(O)C1 [fucoxanthin]
[1]
  number of toluidine blue (TB)-positive cells in skin: remarkably lower
[2]
  filaggrin expression in the epidermis (immunohistochemistry): elevated; also recorded: abundantly localized in the stratum corneum
[3]
  loricrin expression in the epidermis (immunohistochemistry): elevated; also recorded: distributed in the whole skin
[4]
  BMMC formation (number of BMMCs): suppressed BMMC formation in a dose-dependent manner
[5]
  transdermal water loss (TEWL): remarkably inhibited moisture evaporation
[6]
  granule formation (tryptase-positive cells / immunoreactivity against tryptase): remarkably reduced; also recorded: No tryptase-positive cell; also recorded: suppressed granule formation; also recorded: almost completely inhibited granule formation
[7]
  expression of Mitf1: did not change significantly
[8]
  expression of GATA-1: downregulated
[9]; 10 μM added day 0, 3 to 4 weeks after starting culture
  expression of Cebpα, 3 to 4 weeks: remarkably upregulated
[9]; 10 μM added day 0, first 2 weeks of culture
  expression of Cebpα, first 2 weeks: downregulated
[10]
  expression of GATA-2: downregulated
[11]
  expression of PU.1: did not change significantly
[12]
  expression of FcεRIα: downregulated
[13]
  expression of Hdc: downregulated
[14]
  loricrin expression level in skin (western blot): elevated
[15]
  filaggrin expression level in skin (western blot): elevated
